Laboratory results reported in patent publication US20170266292A1, “LIPIDIC COMPOUND-TELODENDRIMER HYBRID NANOPARTICLES AND METHODS OF MAKING AND USES THEREOF” (The Research Foundation for The State University of New York, priority 2016, published 2017).

Tests used:
U87 cells [1] = assay: MTS cell viability assay on U87 cells; type: cell-based, human; conditions: 72 h continuous incubation
Experimental: Cell Culture and MTS Assays. The human glioblastoma multiforme (GBM) cell lines U87 and LN229, as well as the colon cancer cell line HT-29 cell line were purchased from American Type Culture Collection (ATCC, Manassas, Va., U.S.A.). U138 cell line established from human patients diagnosed with GBM. All cells were cultured in McCoy's 5 A medium supplemented with 10% fetal bovine serum (FBS), 100 U/mL penicillin G, and […] streptomycin at 37° C. using a humidified 5% CO2 incubator. Various formulations of proteins with different dilutions were added to the plate and then incubated in a humidified 37° C., 5% CO2 incubator. After a 72 h continuous incubation, a mixture solution composed of CellTiter 96 AQueous MTS, and an electron coupling reagent, PMS, was added to each well according to the manufacturer's instructions. The cell viability was determined by measuring absorbance at 490 nm using a microplate reader (BioTek Synergy 2). Untreated cells served as the control. Results were shown as the average cell viability [100%×(ODtreat−ODblank)/(ODcontrol−ODblank)] of triplicate wells. The cells were also treated with blank nanoparticles in PBS (1×) and blank lipidoids in a mixture of cremophor/ethanol (v:v=1:1) with different dilutions and incubated for a total of 72 h to evaluate nanoparticle-related toxicity.

[2] = DLS hydrodynamic diameter of lipidoid-telodendrimer hybrid NPs; type: physicochemical; conditions: lipidoid alone
Experimental: (§1) Formulation of Lipidoid-Telodendrimer Nanoparticles. Nanoparticles were formed by mixing lipidoids and/or telodendrimers at required mass ratios in a solution of 90% ethanol and 10% 10 mM sodium citrate (by volume). Particle solutions were diluted with 10 times volume of phosphate buffered saline (PBS, 1×), and dialyzed against PBS (1×) for 4 h. The particle solution was then mixed with proteins at a ratio of 1/10 (protein/nanoparticle, w/w) to form nanoparticle-protein complex. The complex solution was then stored in sealed vessels at 4° C. for 1 day before use. For Mcl-1 inhibitor-loaded nanoparticle preparation, the Mcl-1 inhibitor, lipidoids and telodendrimers were in a solution of 90% ethanol and 10% 10 mM sodium citrate (by volume). Particle solutions were diluted with 10 times volume of PBS, yielding Mcl-1 inhibitor-loaded lipidoid-telodendrimer nanoparticles.
(§2) Characterization. Proton NMR spectrum was recorded on a Bruker AVANCE 600 MHz spectrometer. MALDI-TOF mass spectrum was recorded on a Bruker REFLEX-III instrument. Dynamic light scattering (DLS) studies were performed using a Zetatrac (Microtrac Inc.) instrument, and the area-based mean particle sizes were presented. Zeta potential measurements were carried out on a Malvern Nano-ZS zetasizer at room temperature. […] UV-vis spectra were recorded on a Thermo Scientific Nanodrop 2000c spectrophotometer.

[3] = Zeta potential of lipidoid-telodendrimer hybrid NPs; type: physicochemical; conditions: lipidoid alone
Experimental: as §1, §2

[4] = tested on: orthotopic human U87 GBM tumors; assay: Intracranial distribution of proteins after CED; type: in vivo, mouse; conditions: one day after CED; protein/NP 1/10; confocal microscopy
Experimental: Intracranial Orthotopic GBM Tumor Model. Female athymic nude mice (NCRNU-Sp/Sp), 6-7 weeks age, were purchased from Taconic Biosciences (Germantown, N.Y.). All animals were kept under pathogen-free conditions according to Association for Assessment and Accreditation of Laboratory Animal Care (AAALAC) guidelines and were allowed to acclimatize for at least 4 days prior to any experiments. All animal experiments were performed in compliance with institutional guidelines and according to protocol approved by the Committee for the Humane Use of Animals of State University of New York Upstate Medical University. Athymic nude mice were anesthetized with ketamine/xylazine (80 mg/kg: 5 mg/kg) through an intraperitoneal injection. The mice were then placed in a stereotactic head frame. Using aseptic technique, a midline skin incision was made a 0.5 mm anterior to bregma and 2.5 mm lateral of midline, a burr hole will be placed. A 25G needle delivered U87 (GBM) tumor cells 3.2 mm deep via the stereotactic head frame. Approximately 5×10^4 cells (in 1 μL of PBS) will be injected. This injection will occur over the course of 5 minutes. […]
CED Administration of Protein Formulations. […] For bioluminescence image analysis, the associated bioluminescence intensities were determined by Living Image software (Caliper Life Sciences) using operator-defined regions of interest (ROI) measurements.

HT-29 cells = assay: Cellular uptake of protein-incorporated nanoparticles, HT-29 cells; type: cell-based, human; conditions: 2 h at 37° C., FITC approx. 1 μg/mL
Experimental: (§3) Cellular Uptake of Protein-Incorporated Nanoparticles. The cellular uptake and intracellular trafficking of the protein-incorporated nanoparticles were determined by fluorescence microscopy. FITC-BSA was used as a model protein. HT-29 and U87 cells were seeded in chamber slide with a density of 5×10^4 cells per well in 350 μL of McCoy's 5 A and cultured for 24 h. The original medium was replaced with free FITC-BSA and FITC-BSA-loaded nanoparticles at final FITC a concentration of 1 or 3 μg/mL at 37° C. After a 2 h incubation, the cells were washed three times with cold PBS (1×) and fixed with 4% formaldehyde for 10 min at room temperature, and the cell nuclei were stained with DAPI. The slides were mounted with cover slips and cells were imaged with a Leica fluorescence microscope or a Nikon FV1000 laser scanning confocal scanning microscope. The mean fluorescence density in cells (unit: pixel^−1) was calculated using the following equation: […]

[5] = Protein release from agarose gels (0.6% wt); type: physicochemical; conditions: FITC-BSA from agarose gels (0.6% wt) immersed in PBS
Experimental: Protein Release from Agarose Gels. Free FITC-BSA and FITC-BSA-incorporated lipidoid-telodendrimer hybrid nanoparticles (1/10, FITC-BSA/nanoparticle, w/w) were loaded in agarose gels of a concentration of 0.6% wt. The sample-loaded agarose gels were immersed in PBS (1×) with shaking for protein release assays. The concentration of released FITC-BSA at various time points was measured by fluorescence spectroscopy employing a pre-established calibration equation. The release medium was replaced with fresh medium. The accumulated protein release was reported as the means for each triplicate sample.

U87 cells [6] = assay: Cellular uptake of protein-incorporated nanoparticles, U87 cells; type: cell-based, human; conditions: 2 h at 37° C.
Experimental: as §3

CCCCCCCCCCCCCCC(O)CN(C)CCCN(C)CC(O)CCCCCCCCCCCCCC (centres unmarked) [lipidoid, 1,1′-(propane-1,3-diylbis(methylazanediyl))bis(hexadecan-2-ol)]
cytotoxicity of blank nanoparticles / lipidoid (U87 cells [1]): toxicity was observed
particle size of lipidoid NPs [2]: ~129 nm
ζ-potential of lipidoid NPs [3]: +8 mV

free Cy5-BSA: near-infrared fluorescence dye-labeled BSA (Cy5-BSA), model protein
distribution in brain sections containing U87 tumors (fluorescence) [4]: no obvious fluorescent signals

free FITC-BSA: fluorescein isothiocyanate (FITC) labeled BSA, model protein
cellular uptake efficiency (semi-quantitative, mean fluorescence intensity) (HT-29 cells): closes to zero
time within which ~50% of the proteins released [5]: ≤ 2 h
cellular uptake efficiency (semi-quantitative, mean fluorescence intensity) (U87 cells [6]; FITC approx. 1 μg/mL): closes to zero
cellular uptake (confocal laser fluorescence microscopy) (U87 cells [6]; FITC approx. 3 μg/mL): very low
